Laboratory results published in PubChem BioAssay (NCI).
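Compound exposure: 48 hours, 5 concentrations, 96-well plates. TGI: total growth inhibition.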

What was measured:
Assay in all cases: growth of human tumour cells (NCI), 48 h
[1] = test system: K-562 leukemia
[2] = test system: HCT-116 colon
[3] = test system: HT29 colon
[4] = test system: SK-OV-3 ovarian
[5] = test system: 786-0 renal
[6] = test system: TK-10 renal
[7] = test system: UACC-257 melanoma
[8] = test system: UO-31 renal
[9] = test system: SR leukemia
[10] = test system: SNB-19 CNS
[11] = test system: CAKI-1 renal
[12] = test system: RPMI-8226 leukemia
[13] = test system: ACHN renal
[14] = test system: MCF7 breast
[15] = test system: MOLT-4 leukemia
[16] = test system: NCI/ADR-RES ovarian
[17] = test system: COLO 205 colon
[18] = test system: SK-MEL-5 melanoma
[19] = test system: U251 CNS
[20] = test system: OVCAR-5 ovarian
[21] = test system: HOP-62 NSCLC
[22] = test system: MALME-3M melanoma
[23] = test system: BT-549 breast
[24] = test system: UACC-62 melanoma
[25] = test system: RXF 393 renal
[26] = test system: PC-3 prostate
[27] = test system: SF-539 CNS
[28] = test system: OVCAR-8 ovarian
[29] = test system: NCI-H226 lung
[30] = test system: A549 NSCLC
[31] = test system: NCI-H522 lung
[32] = test system: OVCAR-3 ovarian
[33] = test system: DU-145 prostate
[34] = test system: HOP-92 NSCLC
[35] = test system: HL-60(TB) leukemia
[36] = test system: EKVX NSCLC
[37] = test system: SK-MEL-28 melanoma
[38] = test system: SNB-75 CNS
[39] = test system: HCC-2998 colon
[40] = test system: SF-268 CNS
[41] = test system: SN12C renal
[42] = test system: IGROV1 ovarian
[43] = test system: SF-295 CNS
[44] = test system: MDA-N
[45] = test system: M14 melanoma
[46] = test system: LOX IMVI melanoma
[47] = test system: HCT-15 colon
[48] = test system: KM12 colon
[49] = test system: OVCAR-4 ovarian
[50] = test system: SW-620 colon
[51] = test system: NCI-H460 lung
[52] = test system: CCRF-CEM leukemia
[53] = test system: NCI-H23 lung
[54] = test system: MDA-MB-231 breast
[55] = test system: A498 renal
[56] = test system: SK-MEL-2 melanoma
[57] = test system: MDA-MB-435

How did the TGI [1] turn out when `CC[N+](C)(CC)CCNC(=O)C(O)(c1ccccc1)c1ccccc1` was run?
Its TGI is greater than 100 µM.

What about the TGI [2] of the same compound?
Its TGI is greater than 100 µM.

And the TGI [3]?
The TGI was greater than 100 µM.

And the TGI [4]?
The TGI was greater than 100 µM.

What about the TGI [5] of the same compound?
Its TGI is greater than 100 µM.

And the TGI [6]?
Its TGI is greater than 100 µM.

And the TGI [7]?
The TGI was greater than 100 µM.

What about the TGI [8] of the same compound?
Its TGI is greater than 100 µM.

What about the TGI [9] of the same compound?
Its TGI is greater than 100 µM.

What about the TGI [10] of the same compound?
Its TGI is greater than 100 µM.

What about the TGI [11] of the same compound?
The TGI was greater than 100 µM.

And the TGI [12]?
Its TGI is greater than 100 µM.

What about the TGI [13] of the same compound?
Its TGI is greater than 100 µM.

What about the TGI [14] of the same compound?
The TGI was greater than 100 µM.

What about the TGI [15] of the same compound?
The TGI was greater than 100 µM.

And the TGI [16]?
Its TGI is greater than 100 µM.

What about the TGI [17] of the same compound?
Its TGI is greater than 100 µM.

And the TGI [18]?
The TGI was greater than 100 µM.

And the TGI [19]?
The TGI was greater than 100 µM.

And the TGI [20]?
The TGI was greater than 100 µM.

What about the TGI [21] of the same compound?
The TGI was greater than 100 µM.

What about the TGI [22] of the same compound?
The TGI was greater than 100 µM.

And the TGI [23]?
Its TGI is greater than 100 µM.

What about the TGI [24] of the same compound?
The TGI was greater than 100 µM.

And the TGI [25]?
Its TGI is greater than 100 µM.

What about the TGI [26] of the same compound?
The TGI was greater than 100 µM.

And the TGI [27]?
The TGI was greater than 100 µM.

And the TGI [28]?
Its TGI is greater than 100 µM.

And the TGI [29]?
Its TGI is greater than 100 µM.

What about the TGI [30] of the same compound?
The TGI was greater than 100 µM.

What about the TGI [31] of the same compound?
The TGI was greater than 100 µM.

What about the TGI [32] of the same compound?
Its TGI is greater than 100 µM.

And the TGI [33]?
The TGI was greater than 100 µM.

And the TGI [34]?
Its TGI is greater than 100 µM.

What about the TGI [35] of the same compound?
The TGI was greater than 100 µM.

And the TGI [36]?
Its TGI is greater than 100 µM.

And the TGI [37]?
The TGI was greater than 100 µM.

What about the TGI [38] of the same compound?
Its TGI is greater than 100 µM.

And the TGI [39]?
Its TGI is greater than 100 µM.

What about the TGI [40] of the same compound?
The TGI was greater than 100 µM.

What about the TGI [41] of the same compound?
Its TGI is greater than 100 µM.

And the TGI [42]?
The TGI was greater than 100 µM.

What about the TGI [43] of the same compound?
The TGI was greater than 100 µM.

And the TGI [44]?
The TGI was greater than 100 µM.

And the TGI [45]?
The TGI was greater than 100 µM.

What about the TGI [46] of the same compound?
The TGI was greater than 100 µM.

And the TGI [47]?
Its TGI is greater than 100 µM.

And the TGI [48]?
Its TGI is greater than 100 µM.

And the TGI [49]?
Its TGI is greater than 100 µM.

What about the TGI [50] of the same compound?
Its TGI is greater than 100 µM.

What about the TGI [51] of the same compound?
Its TGI is greater than 100 µM.

What about the TGI [52] of the same compound?
Its TGI is greater than 100 µM.

What about the TGI [53] of the same compound?
The TGI was greater than 100 µM.

Which results are given for `O=C(COc1ccc(OCC(=O)N2C(=O)CN(c3ccc(Cl)cc3)C2=S)cc1)N1C(=O)CN(c2ccc(Cl)cc2)C1=S`?
TGI [1]: > 100 µM; TGI [2]: 32.6 µM; TGI [3]: 92.2 µM; TGI [4]: 90.3 µM; TGI [5]: 58.6 µM; TGI [54]: 57 µM; TGI [6]: 91.5 µM; TGI [7]: 93.2 µM; TGI [8]: > 100 µM; TGI [10]: > 100 µM; TGI [11]: 40.6 µM; TGI [12]: 75.9 µM; TGI [13]: > 100 µM; TGI [14]: > 100 µM; TGI [15]: > 100 µM; TGI [16]: > 100 µM; TGI [17]: 64.1 µM; TGI [18]: 34.5 µM; TGI [19]: 83.6 µM; TGI [20]: > 100 µM; TGI [22]: > 100 µM; TGI [23]: > 100 µM; TGI [24]: 51.5 µM; TGI [25]: 67.5 µM; TGI [26]: > 100 µM; TGI [29]: 90.1 µM; TGI [30]: 78 µM; TGI [31]: 69.2 µM; TGI [33]: > 100 µM; TGI [34]: 88 µM; TGI [36]: > 100 µM; TGI [37]: > 100 µM; TGI [38]: > 100 µM; TGI [39]: 51.4 µM; TGI [40]: 97.6 µM; TGI [41]: 97.9 µM; TGI [42]: > 100 µM; TGI [55]: 66.8 µM; TGI [43]: > 100 µM; TGI [44]: 92.5 µM; TGI [45]: > 100 µM; TGI [47]: > 100 µM; TGI [48]: 43.4 µM; TGI [56]: 36.6 µM; TGI [57]: > 100 µM; TGI [49]: > 100 µM; TGI [50]: > 100 µM; TGI [51]: 66.1 µM; TGI [53]: > 100 µM
